Molecules are shown by their SMILES.

The test system of one assay is Wnt/β-catenin pathway. Put plainly: luciferase-based reporter assay (SuperTopFlash) measuring Wnt/β-catenin-dependent transcriptional response, L-Wnt-STF cells. It counts as cell-based. To be noted: Mus musculus; Table 1; luciferase reporter of Wnt/β-catenin-dependent transcriptional response. How it is done:
Tables 1 and 2 provides further examples of such compounds, as well as their activities as determined by a luciferase-based reporter assay that measures Wnt/β-catenin-dependent transcriptional response.
For the “primary screen” and “dose-dependent test,” ˜5,000 L-Wnt-STF cells were seeded into each well of a white opaque 384 well plate and individual compounds from the UTSW chemical library added 24 hrs later to each well at a final concentration of 2.5 μM (primary screen) or otherwise indicated concentrations. Luciferase activities were measured 24 hrs later. To identify FL inhibitors and compounds that blocked protein secretion, L-cells were transiently transfected with CMV-FL and CMV-GL constructs and immediately incubated with compounds. Culture medium and cell lysates were analyzed for GL and FL activities, respectively, after 24 hrs. For the “exogenous Wnt test,” Wnt3A-containing conditioned medium, prepared following the protocol provided ATCC, was applied to HEK293 cells transiently transfected with STF and control reporters. For Hedgehog and Notch tests, NIH-3T3 cells or L-cells, respectively, were transiently transfected with indicated reporter constructs and immediately incubated with compounds. Luciferase activities were measured 24 hrs later. The “Wnt secretion test” was performed in L-cells transiently transfected with the Wnt-GL expression construct and immediately incubated with compounds. Culture medium and cellular lysate were analyzed 48 hrs later for GL activity. Assays used to calculate IC50's for compounds were performed as before in L-Wnt-STF cells.
A brief overview of the screen is as follows: mouse L-cells that stably harbor a well-characterized Wnt/β-catenin pathway-responsive firefly luciferase (FL) reporter plasmid (SuperTopFlash or STF), a control reporter, and an expression construct encoding the Wnt protein, Wnt3A, were exposed to individual compounds for two days prior to measurement of reporter activities. Chemicals that altered FL but not control reporter activity were selected for further testing (FIG. 1; FIG. 8). The screening strategy allows for identification of compounds that either potentially increase or decrease Wnt/β-catenin pathway activity.
`Cc1ccc2cccnc2c1NC(=O)c1ccc(N2C(=O)[C@@H]3[C@@H]4C=CC(C4)[C@@H]3C2=O)cc1` [Compound 3] had an EC50 of 0.8 µM. That is a sub-micromolar value.

Consider `O=C(NC1CCCc2cccnc21)c1ccc(N2C(=O)[C@@H]3[C@@H]4C=CC(C4)[C@@H]3C2=O)cc1` (stereo partly drawn) [Compound 4], for which the concentration giving a half-maximal response (EC50) was determined as 10 µM.

The compound `COc1ccccc1NC(=O)c1ccc(N2C(=O)[C@@H]3[C@@H]4C=CC(C4)[C@@H]3C2=O)cc1` [Compound 5] came in with an EC50 of 1 µM.

As to `O=C(Nc1ccccc1)c1ccc(N2C(=O)[C@@H]3[C@@H]4C=CC(C4)[C@@H]3C2=O)cc1` [Compound 6], the 50% effective concentration (EC50) is greater than 25 µM.

Compound `O=C(Nc1ccccc1F)c1ccc(N2C(=O)[C@@H]3[C@@H]4C=CC(C4)[C@@H]3C2=O)cc1` [Compound 7] gave an EC50 greater than 25 µM.

Compound `O=C(Nc1ccccc1Cl)c1ccc(N2C(=O)[C@@H]3[C@@H]4C=CC(C4)[C@@H]3C2=O)cc1` [Compound 8] had an EC50 greater than 25 µM.

`O=C(Nc1ccccc1Br)c1ccc(N2C(=O)[C@@H]3[C@@H]4C=CC(C4)[C@@H]3C2=O)cc1` [Compound 9]: the concentration for a half-maximal effect (EC50) was greater than 25 µM.

Compound `O=C(Nc1cccc(F)c1)c1ccc(N2C(=O)[C@@H]3[C@@H]4C=CC(C4)[C@@H]3C2=O)cc1` [Compound 10] had an EC50 greater than 25 µM.

Turning to `O=C(Nc1cccc(Cl)c1)c1ccc(N2C(=O)[C@@H]3[C@@H]4C=CC(C4)[C@@H]3C2=O)cc1` [Compound 11], the EC50 was greater than 25 µM.

With `O=C(Nc1cccc(Br)c1)c1ccc(N2C(=O)[C@@H]3[C@@H]4C=CC(C4)[C@@H]3C2=O)cc1` [Compound 12], the EC50 was determined as 9 µM. This counts as single-digit micromolar.

`O=C(Nc1ccc(Cl)cc1)c1ccc(N2C(=O)[C@@H]3[C@@H]4C=CC(C4)[C@@H]3C2=O)cc1` [Compound 14] gave an EC50 of 3 µM.

As to `O=C(Nc1ccc(Br)cc1)c1ccc(N2C(=O)[C@@H]3[C@@H]4C=CC(C4)[C@@H]3C2=O)cc1` [Compound 15], the EC50 is 1 µM.

As for `O=C(Nc1cccc(F)c1F)c1ccc(N2C(=O)[C@@H]3[C@@H]4C=CC(C4)[C@@H]3C2=O)cc1` [Compound 16], the EC50 is greater than 25 µM.

In turn, `O=C(Nc1ccc(Cl)cc1Cl)c1ccc(N2C(=O)[C@@H]3[C@@H]4C=CC(C4)[C@@H]3C2=O)cc1` [Compound 18] gave a concentration giving a half-maximal response (EC50) of 10 µM.

In the case of `O=C(Nc1ccc(Br)cc1Br)c1ccc(N2C(=O)[C@@H]3[C@@H]4C=CC(C4)[C@@H]3C2=O)cc1` [Compound 19], the EC50 is greater than 25 µM.

Consider `O=C(Nc1cc(F)ccc1F)c1ccc(N2C(=O)[C@@H]3[C@@H]4C=CC(C4)[C@@H]3C2=O)cc1` [Compound 20], for which the EC50 is greater than 25 µM.

For `O=C(Nc1c(F)cccc1F)c1ccc(N2C(=O)[C@@H]3[C@@H]4C=CC(C4)[C@@H]3C2=O)cc1` [Compound 21], the EC50 was greater than 25 µM.

Regarding `O=C(Nc1ccc(F)c(F)c1)c1ccc(N2C(=O)[C@@H]3[C@@H]4C=CC(C4)[C@@H]3C2=O)cc1` [Compound 22], the EC50 was 3 µM.

For `O=C(Nc1ccc(Cl)c(Cl)c1)c1ccc(N2C(=O)[C@@H]3[C@@H]4C=CC(C4)[C@@H]3C2=O)cc1` [Compound 23], the EC50 came to 5 µM.

`O=C(Nc1ccc(Br)c(Br)c1)c1ccc(N2C(=O)[C@@H]3[C@@H]4C=CC(C4)[C@@H]3C2=O)cc1` [Compound 24] registered a 50% effective concentration (EC50) of 10 µM. This EC50 is about 2-fold higher than that of the compound before.

Compound `O=C(Nc1cc(F)cc(F)c1)c1ccc(N2C(=O)[C@@H]3[C@@H]4C=CC(C4)[C@@H]3C2=O)cc1` [Compound 25] returned an EC50 greater than 25 µM.

`O=C(Nc1ccccc1C(F)(F)F)c1ccc(N2C(=O)[C@@H]3[C@@H]4C=CC(C4)[C@@H]3C2=O)cc1` [Compound 26] showed a concentration giving a half-maximal response (EC50) greater than 25 µM.

`O=C(Nc1cccc(C(F)(F)F)c1)c1ccc(N2C(=O)[C@@H]3[C@@H]4C=CC(C4)[C@@H]3C2=O)cc1` [Compound 27]: the concentration for a half-maximal effect (EC50) came to 20 µM. That is a double-digit micromolar value.

With `O=C(Nc1ccc(C(F)(F)F)cc1)c1ccc(N2C(=O)[C@@H]3[C@@H]4C=CC(C4)[C@@H]3C2=O)cc1` [Compound 28], the EC50 was greater than 25 µM.

For the compound `O=C(NCc1ccccc1)c1ccc(N2C(=O)[C@@H]3[C@@H]4C=CC(C4)[C@@H]3C2=O)cc1` [Compound 29], the EC50 came to 20 µM.

Compound `O=C(NCc1ccccn1)c1ccc(N2C(=O)[C@@H]3[C@@H]4C=CC(C4)[C@@H]3C2=O)cc1` [Compound 30] came in with an EC50 greater than 25 µM.

Compound `O=C(NCc1cccnc1)c1ccc(N2C(=O)[C@@H]3[C@@H]4C=CC(C4)[C@@H]3C2=O)cc1` [Compound 31] displayed a 50% effective concentration (EC50) greater than 25 µM.

`O=C(NCc1ccncc1)c1ccc(N2C(=O)[C@@H]3[C@@H]4C=CC(C4)[C@@H]3C2=O)cc1` [Compound 32] showed an EC50 of 10 µM.

Regarding `O=C(NC1CCCCC1)c1ccc(N2C(=O)[C@@H]3[C@@H]4C=CC(C4)[C@@H]3C2=O)cc1` [Compound 35], the half-maximal effective concentration (EC50) is greater than 25 µM.

Staying with this assay, now noted: Mus musculus; Table 2 (50-52, IWR-8 to IWR-14).
In turn, `CN(C(=O)c1ccc(N2C(=O)[C@@H]3[C@@H]4C=CC(C4)[C@@H]3C2=O)cc1)c1cccc2cccnc12` [Compound 50] showed an EC50 greater than 25 µM.

As to `O=C(Nc1cccc2cccnc12)c1ccc(N2C(=O)[C@@H]3[C@H]4C=CC(C4)[C@@H]3C2=O)cc1` [Compound 51], the EC50 is 5 µM.

For `O=C(Nc1cccc2cccnc12)c1ccc(N2C(=O)[C@@H]3[C@@H]4CCC(C4)[C@@H]3C2=O)cc1` [Compound 52], the midpoint of the response, the EC50, lay at 0.2 µM.

`O=C1[C@@H]2[C@@H]3C=CC(C3)[C@@H]2C(=O)N1c1ccc(S(=O)(=O)Nc2cccc3cccnc23)cc1` [IWR-8] yielded a 50% effective concentration (EC50) greater than 25 µM.

`O=C1[C@@H]2[C@@H]3C=CC(C3)[C@@H]2C(=O)N1c1ccc(S(=O)(=O)Nc2ccccc2Br)cc1` [IWR-9] gave a 50% effective concentration (EC50) greater than 25 µM.

As to `O=C1[C@@H]2[C@@H]3C=CC(C3)[C@@H]2C(=O)N1c1ccc(S(=O)(=O)Nc2cccc(Br)c2)cc1` [IWR-10], the midpoint of the response, the EC50, lay at 2 µM. This lies in the single-digit micromolar range.

For the compound `O=C1[C@@H]2[C@@H]3C=CC(C3)[C@@H]2C(=O)N1c1ccc(S(=O)(=O)Nc2ccc(Br)cc2)cc1` [IWR-11], the concentration for a half-maximal effect (EC50) amounted to 3 µM.

`COc1ccccc1NS(=O)(=O)c1ccc(N2C(=O)[C@@H]3[C@@H]4C=CC(C4)[C@@H]3C2=O)cc1` [IWR-12] came in with a concentration giving a half-maximal response (EC50) of 10 µM.

With `COc1cccc(NS(=O)(=O)c2ccc(N3C(=O)[C@@H]4[C@@H]5C=CC(C5)[C@@H]4C3=O)cc2)c1` [IWR-13], it took 6 µM to reach a half-maximal effect (EC50).

Compound `COc1ccc(NS(=O)(=O)c2ccc(N3C(=O)[C@@H]4[C@@H]5C=CC(C5)[C@@H]4C3=O)cc2)cc1` [IWR-14] yielded an EC50 of 10 µM.

Values taken from patent US8445491B2, “Wnt protein signalling inhibitors” (The Board of Regents of the University of Texas System, priority 2008, dated 2013).
